System: patients with psoriatic arthritis
Assay: Phase 2 trial in psoriatic arthritis: PASI75 response at week 16
Type: in vivo, human
Conditions: for Odds Ratio for PASI75 response / Odds Ratio (OR) for PASI75 response / Interaction Term for PASI75 response (ratio of odds ratios): week 16
Procedure: In a double-blind Phase 2 trial, 203 patients with psoriatic arthritis were randomized into three groups: deucravacitinib 6 mg once daily (N=70), deucravacitinib 12 mg once daily (N=67), or placebo (N=66). All subjects had active psoriatic arthritis according to the Classification Criteria for Psoriatic Arthritis (CASPAR); for active disease, these criteria required ≥3 tender joint count, ≥3 swollen joint count, and a C-reactive protein level above 3 mg/L. Other inclusion criteria included the following: presence of at least one plaque psoriasis lesion, and prior treatment failure with a non-biologic disease modifying anti-rheumatic drug, a non-steroidal anti-inflammatory drug, or a steroid. With respect to treatment history, approximately 70% of subjects had not received prior treatment with a biologic and were biologic naïve, while up to 30% of subjects had failed or had been intolerant to one TNF-inhibitor (TNF=Tumor necrosis factor, also known as TNFα). Randomization was stratified by prior TNF-inhibitor use (experienced/naïve) and body weight (<90 kg and ≥90 kg).
Clinical measures included the Psoriasis […] (PASI) score for skin psoriasis, American College of Rheumatology 20 (ACR20) response, Psoriatic Arthritis Disease Activity Score (PASDAS), Health Assessment Questionnaire-Disability Index (HAQ-DI), and Disease Activity Score 28 CRP (DAS28). To evaluate the predictive value of different protein measurements for the clinical response to deucravacitinib, baseline protein concentrations for responders and non-responders, as defined by ACR20 or PASI75 at week 16, were compared for each arm (placebo, 6 mg deucravacitinib once-daily, and 12 mg deucravacitinib once-daily).
In addition, a logistic regression model was fit, to determine whether baseline disease score (dichotomized by the median baseline score, into baseline score high and baseline score low groups) was associated with response status. The model generated an odds ratio for each dosed arm versus placebo, in baseline score high and baseline score low groups.
Boxplots for baseline protein level by response were generated with a horizontal line indicating the median protein level at baseline. For each treatment arm, a two-sample t-test was performed to test whether mean baseline serum protein level was different in responders versus non-responders. A Wilcoxon rank sum test (Mann-Whitney U test) was also performed to evaluate the difference in median serum protein level between responders and non-responders. Further, barplots of ACR20 and PASI75 response rate at week 16 for each treatment arm were generated for all subjects (protein level high and protein level low subjects, dichotomized according to median baseline level). Line plots of ACR20 and PASI75 response rate over time for each treatment arm were generated for protein level high and protein level low groups. Logistic regression models were also fit to evaluate associations between baseline protein levels and clinical outcome.
For certain analyses described herein, patients were dichotomized by median values (e.g., of the proteins listed above or other measures) into “high” and “low” groups, such that the high group had values above the median and the low group had values less than or equal to the median.
In addition, logistic regression models were fit for response measures ACR20 and PASI75, to generate the odds ratio of each of the deucravacitinib treatment arms versus placebo, in BD2-high and BD2-low groups. The following logistic regression models were used: • For ACR20 response status: ACR20 (Y/N)=treatment arm+BD2 group+treatment arm*BD2 group+TNF-inhibitor use+baseline weight (continuous). • For PASI75 response status: PASI75 (Y/N)=treatment arm+BD2 group+treatment arm*BD2 group+TNF-inhibitor use+baseline weight (continuous). […]

Structure (SMILES): [2H]C([2H])([2H])NC(=O)c1nnc(NC(=O)C2CC2)cc1Nc1cccc(-c2ncn(C)n2)c1OC [deucravacitinib, 6-(cyclopropanecarboxamido)-4-((2-methoxy-3-(1-methyl-1H-1,2,4-triazol-3-yl)phenyl)amino)-N-(methyl-d3)pyridazine-3-carboxamide]
- Odds Ratio, PASI75 response status (CRP-high-PASI-high, 12 mg QD vs placebo): 17.226
- Odds Ratio, PASI75 response status (CRP-high-PASI-low, 6 mg QD vs placebo): 0.710
- Odds Ratio, PASI75 response status (CRP-high-PASI-low, 12 mg QD vs placebo): 5.115
- Odds Ratio, PASI75 response status (CRP-high, 6 mg QD vs placebo, adjusted for baseline PASI score): 3.82
- Odds Ratio, PASI75 response status (CRP-high, 12 mg QD vs placebo, adjusted for baseline PASI score): 12.05
- Odds Ratio, PASI75 response status (CRP-low-PASI-high, 6 mg QD vs placebo): 2.470
- Odds Ratio, PASI75 response status (CRP-low-PASI-high, 12 mg QD vs placebo): 16.368
- Odds Ratio, PASI75 response status (CRP-low-PASI-low, 6 mg QD vs placebo): 1.866
- Odds Ratio, PASI75 response status (CRP-low-PASI-low, 12 mg QD vs placebo): 1.197
- Odds Ratio, PASI75 response status (CRP-low, 6 mg QD vs placebo, adjusted for baseline PASI score): 2.29
- Odds Ratio, PASI75 response status (CRP-low, 12 mg QD vs placebo, adjusted for baseline PASI score): 3.79
- Odds Ratio for PASI75 response (IL-17A high (baseline above median 0.575 ng/L), 6 mg QD vs placebo): 12.643
- Odds Ratio for PASI75 response (IL-17A high (baseline above median 0.575 ng/L), 12 mg QD vs placebo): 20.916
- PASI75 response rate at week 16 (IL-17A high group, 6 mg QD and 12 mg QD vs placebo (FIG. 21)): higher in both 6 mg QD and 12 mg QD treatment arms compared to placebo
- Odds Ratio, PASI75 response status (IL-17A high-PASI high, 6 mg QD vs placebo): 12.355
- Odds Ratio, PASI75 response status (IL-17A high-PASI high, 12 mg QD vs placebo): 15.937
- Odds Ratio, PASI75 response status (IL-17A high-PASI low, 6 mg QD vs placebo): 13.247
- Odds Ratio, PASI75 response status (IL-17A high-PASI low, 12 mg QD vs placebo): 30.955
- Odds Ratio, PASI75 response status (IL-17A high, 6 mg QD vs placebo, adjusted for baseline PASI score): 13.452
- Odds Ratio, PASI75 response status (IL-17A high, 12 mg QD vs placebo, adjusted for baseline PASI score): 23.963
- Odds Ratio for PASI75 response (IL-17A high, treatment arms combined vs placebo): 15.763
- Odds Ratio, PASI75 response status (IL-17A low-PASI high, 6 mg QD vs placebo): 3.005
- Odds Ratio, PASI75 response status (IL-17A low-PASI high, 12 mg QD vs placebo): 20.919
- Odds Ratio, PASI75 response status (IL-17A low-PASI low, 6 mg QD vs placebo): 0.188
- Odds Ratio, PASI75 response status (IL-17A low-PASI low, 12 mg QD vs placebo): 0.415
- Odds Ratio, PASI75 response status (IL-17A low, 6 mg QD vs placebo, adjusted for baseline PASI score): 0.588
- Odds Ratio for PASI75 response (IL-17A low, 6 mg QD vs placebo): 0.553
- Odds Ratio, PASI75 response status (IL-17A low, 12 mg QD vs placebo, adjusted for baseline PASI score): 1.812
- Odds Ratio for PASI75 response (IL-17A low, 12 mg QD vs placebo): 1.730
- Odds Ratio for PASI75 response (IL-17A low, treatment arms combined vs placebo): 1.014
- PASI75 response rate at week 16 (IL-19-high group, 6 mg QD and 12 mg QD vs placebo arm (FIG. 14)): higher in both 6 mg QD and 12 mg QD treatment arms compared to the response rate in the placebo arm
- Odds Ratio (OR) for PASI75 response (IL-19-low-PASI high, 6 mg QD vs placebo): 1.244
- Odds Ratio (OR) for PASI75 response (IL-19-low-PASI high, 12 mg QD vs placebo): 2.845
- Odds Ratio (OR) for PASI75 response (IL-19-low-PASI low, 6 mg QD vs placebo): 0.321
- Odds Ratio (OR) for PASI75 response (IL-19-low-PASI low, 12 mg QD vs placebo): 0.380
- Odds Ratio (OR) for PASI75 response (IL-19 low, 6 mg QD vs placebo): 0.443
- Odds Ratio (OR) for PASI75 response (IL-19 low, 12 mg QD vs placebo): 0.842
- Odds Ratio for PASI75 response (IL-19 low, treatment arms combined vs placebo): 6.284
- Interaction Term for PASI75 response (ratio of odds ratios) (adjusted for baseline PASI score, 6 mg QD vs placebo: BD2-high versus BD2-low): 13.742
- Interaction Term for PASI75 response (ratio of odds ratios) (adjusted for baseline PASI score, 12 mg QD vs placebo: BD2-high versus BD2-low): 19.455
- Odds Ratio for PASI75 response (adjusted for baseline PASI score, All patients, 6 mg QD vs placebo): 3.052
- Odds Ratio for PASI75 response (adjusted for baseline PASI score, All patients, 12 mg QD vs placebo): 6.494
- Odds Ratio for PASI75 response (adjusted for baseline PASI score, BD2-high, 6 mg QD vs placebo): 13.559
- Odds Ratio for PASI75 response (adjusted for baseline PASI score, BD2-high, 12 mg QD vs placebo): 34.074
- Odds Ratio for PASI75 response (adjusted for baseline PASI score, BD2-low, 6 mg QD vs placebo): 0.987
- Odds Ratio for PASI75 response (adjusted for baseline PASI score, BD2-low, 12 mg QD vs placebo): 1.751
- Odds Ratio (OR) for PASI75 response (adjusted for baseline PASI score, IL-19 low, 6 mg QD vs placebo): 0.476
- Odds Ratio (OR) for PASI75 response (adjusted for baseline PASI score, IL-19 low, 12 mg QD vs placebo): 0.896
- PASI75 response rate at week 16 (both CRP-high and CRP-low groups, 6 mg, 12 mg, placebo arms (FIG. 38)): the response rate was higher in the 6 mg deucravacitinib treatment arm than in the placebo arm, and the response rate was even higher in the 12 mg deucravacitinib treatment arm than in the 6 mg treatment arm
- Interaction Term for PASI75 response (ratio of odds ratios) (treatment arms combined vs placebo: BD2 high versus BD2 low): 12.100
- Interaction Term: treatment arm*CRP group, PASI75 (treatment arms combined vs placebo: CRP high versus CRP low): 1.903
- Interaction Term for PASI75 response (ratio of odds ratios) (treatment arms combined vs placebo: IL-17A high versus IL-17A low): 15.541

— US20240390369A1, “METHODS FOR DETERMINING RESPONSIVENESS TO TYK2 INHIBITORS” (Bristol-Myers Squibb Company, priority 2021, published 2024)
